From paper PMC5218480 (PLoS ONE, 2017)

System: MV-4-11 cells
Assay: Gene expression microarray analysis (Affymetrix PrimeView) and GSEA
Format: cell-based, human
Set-up: RFU PODN (11730768_x_at) / Fold change /veh PODN (11730768_x_at) / RFU LINC00158 (11744669_a_at) / Fold change /veh LINC00158 (11744669_a_at) / RFU DUSP10 (11751237_a_at) / Fold change /veh DUSP10 (11751237_a_at) / RFU ID3 (11757404_x_at) / Fold change /veh ID3 (11757404_x_at) / RFU PLEKHG5 (11737974_s_at) / Fold change /veh PLEKHG5 (11737974_s_at) / RFU LRRC4B (11730491_at) / Fold change /veh LRRC4B (11730491_at) / RFU GIMAP4 (11747438_a_at) / Fold change /veh GIMAP4 (11747438_a_at) / RFU KRT8 (11758183_x_at) / Fold change /veh KRT8 (11758183_x_at) / RFU CNN1 (11734310_a_at) / Fold change /veh CNN1 (11734310_a_at) / RFU VPS37D (11726825_at) / Fold change /veh VPS37D (11726825_at) / RFU C10orf10 (11716522_x_at) / Fold change /veh C10orf10 (11716522_x_at) / RFU KIR2DL2 /// KIR2DL4 /// KIR2DL5A /// KIR2DL5B /// KIR2DS1 /// KIR2DS2 /// KIR2DS3 /// KIR2DS4 /// KIR3DL3 /// KIR3DL3 /// KIR3DS1 (11738374_at) / Fold change /veh KIR2DL2 /// KIR2DL4 /// KIR2DL5A /// KIR2DL5B /// KIR2DS1 /// KIR2DS2 /// KIR2DS3 /// KIR2DS4 /// KIR3DL3 /// KIR3DL3 /// KIR3DS1 (11738374_at) / RFU C1QL1 (11718748_at) / Fold change /veh C1QL1 (11718748_at) / RFU TMPRSS4 (11747572_a_at) / Fold change /veh TMPRSS4 (11747572_a_at) / RFU HAMP (11756126_x_at) / Fold change /veh HAMP (11756126_x_at) / RFU RNFT2 (11725882_a_at) / Fold change /veh RNFT2 (11725882_a_at) / RFU NR4A2 (11747474_a_at) / Fold change /veh NR4A2 (11747474_a_at) / RFU ABCC12 (11746883_a_at) / Fold change /veh ABCC12 (11746883_a_at) / RFU TMEM136 (11760407_x_at) / Fold change /veh TMEM136 (11760407_x_at) / RFU CLDN22 /// WWC2 (11732394_at) / Fold change /veh CLDN22 /// WWC2 (11732394_at) / RFU HLA-DPB1 (11760878_x_at) / Fold change /veh HLA-DPB1 (11760878_x_at) / RFU SPINT1 (11716480_a_at) / Fold change /veh SPINT1 (11716480_a_at) / RFU GAP43 (11754022_s_at) / Fold change /veh GAP43 (11754022_s_at) / RFU A4GNT (11735810_at) / Fold change /veh A4GNT (11735810_at) / RFU PRB3 (11715151_x_at) / Fold change /veh PRB3 (11715151_x_at) / RFU TUBB4B (11761932_at) / Fold change /veh TUBB4B (11761932_at) / RFU CAPN14 (11732068_a_at) / Fold change /veh CAPN14 (11732068_a_at) / RFU TMCC2 (11721928_a_at) / Fold change /veh TMCC2 (11721928_a_at) / RFU IRGQ (11745062_a_at) / Fold change /veh IRGQ (11745062_a_at) / RFU FAM174B (11720279_a_at) / Fold change /veh FAM174B (11720279_a_at) / RFU TMPRSS4 (11748680_a_at) / Fold change /veh TMPRSS4 (11748680_a_at) / RFU FAM212B (11763350_a_at) / Fold change /veh FAM212B (11763350_a_at) / RFU PLEKHG5 (11743358_a_at) / Fold change /veh PLEKHG5 (11743358_a_at) / RFU ZSCAN30 (11745921_a_at) / Fold change /veh ZSCAN30 (11745921_a_at) / RFU CMKLR1 (11741424_a_at) / Fold change /veh CMKLR1 (11741424_a_at) / RFU LOC101060620 /// MAPK8IP1 (11723275_at) / Fold change /veh LOC101060620 /// MAPK8IP1 (11723275_at) / RFU SPTSSB (11747773_x_at) / Fold change /veh SPTSSB (11747773_x_at) / RFU PRSS12 (11739890_at) / Fold change /veh PRSS12 (11739890_at) / RFU BIN1 (11741810_x_at) / Fold change /veh BIN1 (11741810_x_at) / RFU WNT11 (11732464_a_at) / Fold change /veh WNT11 (11732464_a_at) / RFU C10orf10 (11716521_a_at) / Fold change /veh C10orf10 (11716521_a_at) / RFU C5orf56 (11738089_at) / Fold change /veh C5orf56 (11738089_at) / RFU CYB561 (11721691_x_at) / Fold change /veh CYB561 (11721691_x_at) / RFU ANKRD19P (11752326_a_at) / Fold change /veh ANKRD19P (11752326_a_at) / RFU OR2T12 /// OR2T33 /// OR2T8 (11738714_s_at) / Fold change /veh OR2T12 /// OR2T33 /// OR2T8 (11738714_s_at) / RFU VCAN (11748164_a_at) / Fold change /veh VCAN (11748164_a_at) / RFU JSRP1 (11732532_at) / Fold change /veh JSRP1 (11732532_at) / RFU KRTAP10-11 (11738290_x_at) / Fold change /veh KRTAP10-11 (11738290_x_at) / RFU MYO3A (11730013_a_at) / Fold change /veh MYO3A (11730013_a_at) / RFU EBF3 (11725865_a_at) / Fold change /veh EBF3 (11725865_a_at) / RFU CAMK2N1 (11719241_x_at) / Fold change /veh CAMK2N1 (11719241_x_at) / RFU C5orf56 (11738088_a_at) / Fold change /veh C5orf56 (11738088_a_at) / RFU OLFML3 (11715873_a_at) / Fold change /veh OLFML3 (11715873_a_at) / RFU LOC100653217 /// NTM (11731650_a_at) / Fold change /veh LOC100653217 /// NTM (11731650_a_at) / RFU MAPK11 (11762145_a_at) / Fold change /veh MAPK11 (11762145_a_at) / RFU FIZ1 (11724087_x_at) / Fold change /veh FIZ1 (11724087_x_at) / RFU OASL (11726364_x_at) / Fold change /veh OASL (11726364_x_at) / RFU SOX15 (11748057_x_at) / Fold change /veh SOX15 (11748057_x_at) / RFU CD79A (11719716_a_at) / Fold change /veh CD79A (11719716_a_at) / RFU HIST1H1D (11736915_at) / Fold change /veh HIST1H1D (11736915_at) / RFU CASKIN2 (11723855_a_at) / Fold change /veh CASKIN2 (11723855_a_at) / RFU LOC730098 (11760151_x_at) / Fold change /veh LOC730098 (11760151_x_at) / RFU OR4N2 (11742367_at) / Fold change /veh OR4N2 (11742367_at) / RFU PRRT2 (11749266_a_at) / Fold change /veh PRRT2 (11749266_a_at) / RFU SNX32 (11753110_a_at) / Fold change /veh SNX32 (11753110_a_at) / RFU CDHR5 (11726645_a_at) / Fold change /veh CDHR5 (11726645_a_at) / RFU RCAN1 (11760418_a_at) / Fold change /veh RCAN1 (11760418_a_at) / RFU FAM167A (11723789_a_at) / Fold change /veh FAM167A (11723789_a_at) / RFU FAM26E (11764081_at) / Fold change /veh FAM26E (11764081_at) / RFU ISYNA1 (11749810_s_at) / Fold change /veh ISYNA1 (11749810_s_at) / RFU ACY1 (11761880_at) / Fold change /veh ACY1 (11761880_at) / RFU 11764098_at / Fold change /veh 11764098_at / RFU SAMD14 (11745864_x_at) / Fold change /veh SAMD14 (11745864_x_at) / RFU NPB (11741838_a_at) / Fold change /veh NPB (11741838_a_at) / RFU TMPRSS6 (11731388_a_at) / Fold change /veh TMPRSS6 (11731388_a_at) / RFU KRTAP10-2 (11738614_at) / Fold change /veh KRTAP10-2 (11738614_at) / RFU ARHGAP8 /// PRR5-ARHGAP8 (11727945_x_at) / Fold change /veh ARHGAP8 /// PRR5-ARHGAP8 (11727945_x_at) / RFU KRTAP5-7 /// NADSYN1 (11734609_at) / Fold change /veh KRTAP5-7 /// NADSYN1 (11734609_at) / RFU RASL12 (11751679_a_at) / Fold change /veh RASL12 (11751679_a_at) / RFU CDKN2B (11736163_a_at) / Fold change /veh CDKN2B (11736163_a_at) / RFU PRF1 (11729649_at) / Fold change /veh PRF1 (11729649_at) / RFU, ZNF638 /// ZNF638-IT1 / Fold change vs veh, ZNF638 /// ZNF638-IT1 / RFU, PANK3 / Fold change vs veh, PANK3 / RFU, SH3YL1 / Fold change vs veh, SH3YL1 / RFU, ZEB2 / Fold change vs veh, ZEB2 / RFU, NRIP1 / Fold change vs veh, NRIP1 / RFU, PTTG1IP / Fold change vs veh, PTTG1IP / RFU, CAPN2 / Fold change vs veh, CAPN2 / RFU, MED14 / Fold change vs veh, MED14 / RFU, SNORA58 / Fold change vs veh, SNORA58 / RFU, C1orf63 / Fold change vs veh, C1orf63 / RFU, LRRFIP1 / Fold change vs veh, LRRFIP1 / RFU, NDUFAF7 / Fold change vs veh, NDUFAF7 / RFU, SLC12A2 / Fold change vs veh, SLC12A2 / RFU, IBTK / Fold change vs veh, IBTK / RFU, ESF1 / Fold change vs veh, ESF1 / Fold change vs veh, TMEM50B / RFU, TAOK1 / Fold change vs veh, TAOK1 / RFU, ACBD3 / Fold change vs veh, ACBD3 / RFU, TMA16 / Fold change vs veh, TMA16 / RFU, RWDD3 / Fold change vs veh, RWDD3 / RFU, BCAT1 / Fold change vs veh, BCAT1 / RFU, EDEM3 / Fold change vs veh, EDEM3 / RFU, TMEM33 / Fold change vs veh, TMEM33 / RFU, WDR75 / Fold change vs veh, WDR75 / RFU, AHCTF1 / Fold change vs veh, AHCTF1 / RFU, TFRC / Fold change vs veh, TFRC / RFU, ZDHHC17 / Fold change vs veh, ZDHHC17 / RFU, NOM1 / Fold change vs veh, NOM1 / RFU, ARL8B / Fold change vs veh, ARL8B / RFU, ZBTB11 / Fold change vs veh, ZBTB11 / RFU, TAMM41 / Fold change vs veh, TAMM41 / RFU, KIAA1704 /// LOC100996395 / Fold change vs veh, KIAA1704 /// LOC100996395 / RFU, ING1 / Fold change vs veh, ING1 / RFU, TRMT61B / Fold change vs veh, TRMT61B / RFU, FUBP3 / Fold change vs veh, FUBP3 / RFU, TP53 / Fold change vs veh, TP53 / RFU, TNKS2 / Fold change vs veh, TNKS2 / RFU, ZFP14 / Fold change vs veh, ZFP14 / RFU, ACTR2 / Fold change vs veh, ACTR2 / RFU, PPP3R1 / Fold change vs veh, PPP3R1 / RFU, PIK3R1 / Fold change vs veh, PIK3R1 / RFU, HNRNPA1 / Fold change vs veh, HNRNPA1 / RFU, RNF170 / Fold change vs veh, RNF170 / RFU, ZNF28 / Fold change vs veh, ZNF28 / RFU, RNGTT / Fold change vs veh, RNGTT / RFU, OGT / Fold change vs veh, OGT / RFU, BRD1 / Fold change vs veh, BRD1 / RFU, MARS / Fold change vs veh, MARS / RFU, ZNF655 / Fold change vs veh, ZNF655 / RFU, FAHD1 / Fold change vs veh, FAHD1 / RFU, BDP1 / Fold change vs veh, BDP1 / RFU, LRRCC1 / Fold change vs veh, LRRCC1 / RFU, ARID1A / Fold change vs veh, ARID1A / RFU, ZNF146 / Fold change vs veh, ZNF146 / RFU, ZNF330 / Fold change vs veh, ZNF330 / RFU, GPN3 / Fold change vs veh, GPN3 / RFU, C9orf123 / Fold change vs veh, C9orf123 / RFU, N4BP2L2 / Fold change vs veh, N4BP2L2 / RFU, ARFIP1 / Fold change vs veh, ARFIP1 / RFU, FAM179B / Fold change vs veh, FAM179B / RFU, BCL10 / Fold change vs veh, BCL10 / RFU, UHRF1BP1L / Fold change vs veh, UHRF1BP1L / RFU, BET1 / Fold change vs veh, BET1 / RFU, CNOT2 / Fold change vs veh, CNOT2 / RFU, ZNF268 / Fold change vs veh, ZNF268 / Fold change vs veh, ZNF507 / RFU, DGCR2 / Fold change vs veh, DGCR2 / RFU, WDSUB1 / Fold change vs veh, WDSUB1 / Fold change vs veh, HSP90B1 /// MIR3652 / RFU, ADSS / Fold change vs veh, ADSS / RFU, GK / Fold change vs veh, GK / RFU, ZNF148 / Fold change vs veh, ZNF148 / RFU, TAF9 / Fold change vs veh, TAF9 / RFU, SLC1A5 / Fold change vs veh, SLC1A5 / RFU, SLMO2 / Fold change vs veh, SLMO2 / RFU, ABCC4 / Fold change vs veh, ABCC4 / RFU, LOC101060439 /// RAP1B / Fold change vs veh, LOC101060439 /// RAP1B / RFU, RFX7 / Fold change vs veh, RFX7 / RFU, GTPBP10 / Fold change vs veh, GTPBP10 / RFU, CNEP1R1 / Fold change vs veh, CNEP1R1 / RFU, BIVM-ERCC5 /// ERCC5 / Fold change vs veh, BIVM-ERCC5 /// ERCC5 / RFU, ILF3 / Fold change vs veh, ILF3 / RFU 11762660_at / Fold change /veh 11762660_at / RFU VCAN (11757783_s_at) / Fold change /veh VCAN (11757783_s_at) / RFU DDX43 (11728927_at) / Fold change /veh DDX43 (11728927_at) / RFU KRT8 (11758188_x_at) / Fold change /veh KRT8 (11758188_x_at) / RFU NKD1 (11759106_at) / Fold change /veh NKD1 (11759106_at) / RFU SRD5A1 (11742802_a_at) / Fold change /veh SRD5A1 (11742802_a_at) / RFU TPSAB1 /// TPSB2 (11721975_s_at) / Fold change /veh TPSAB1 /// TPSB2 (11721975_s_at) / RFU GSTM3 (11746129_a_at) / Fold change /veh GSTM3 (11746129_a_at) / RFU IL23R (11737362_x_at) / Fold change /veh IL23R (11737362_x_at) / RFU TMEM51 (11727254_a_at) / Fold change /veh TMEM51 (11727254_a_at) / RFU PIWIL2 (11732686_x_at) / Fold change /veh PIWIL2 (11732686_x_at) / RFU ORM1 (11744905_x_at) / Fold change /veh ORM1 (11744905_x_at) / RFU CCDC152 (11743942_at) / Fold change /veh CCDC152 (11743942_at) / RFU ECM1 (11717891_a_at) / Fold change /veh ECM1 (11717891_a_at) / RFU IL23R (11748794_a_at) / Fold change /veh IL23R (11748794_a_at) / RFU TNFAIP8L3 (11732012_x_at) / Fold change /veh TNFAIP8L3 (11732012_x_at) / RFU MBOAT4 (11741988_at) / Fold change /veh MBOAT4 (11741988_at) / RFU 11764193_at / Fold change /veh 11764193_at / RFU TMEM53 (11763286_at) / Fold change /veh TMEM53 (11763286_at) / RFU MAGEB2 (11727129_at) / Fold change /veh MAGEB2 (11727129_at) / RFU TMEM200A (11744735_a_at) / Fold change /veh TMEM200A (11744735_a_at) / RFU CCDC152 (11751479_a_at) / Fold change /veh CCDC152 (11751479_a_at) / RFU FAM211A (11726209_a_at) / Fold change /veh FAM211A (11726209_a_at) / RFU RGS16 (11746705_a_at) / Fold change /veh RGS16 (11746705_a_at) / RFU VCAN (11755009_s_at) / Fold change /veh VCAN (11755009_s_at) / RFU RHOB (11743442_s_at) / Fold change /veh RHOB (11743442_s_at) / RFU RGS16 (11720943_a_at) / Fold change /veh RGS16 (11720943_a_at) / RFU RGS16 (11720944_at) / Fold change /veh RGS16 (11720944_at) / RFU, VPS4B / Fold change vs veh, VPS4B / RFU, CREB1 / Fold change vs veh, CREB1 / RFU, DNAJC13 / Fold change vs veh, DNAJC13 / RFU, GNAQ / Fold change vs veh, GNAQ / RFU, CDK5R1 / Fold change vs veh, CDK5R1 / RFU, ZRANB3 / Fold change vs veh, ZRANB3 / RFU, CUL4A / Fold change vs veh, CUL4A / RFU, CCNY / Fold change vs veh, CCNY / RFU, UFL1 / Fold change vs veh, UFL1 / RFU, COG3 / Fold change vs veh, COG3 / RFU, DIAPH2 / Fold change vs veh, DIAPH2 / RFU, SKA2 / Fold change vs veh, SKA2 / RFU, AFF3 / Fold change vs veh, AFF3 / RFU, LMF1 / Fold change vs veh, LMF1 / RFU, IPO11 / Fold change vs veh, IPO11 / RFU, DFFB / Fold change vs veh, DFFB / RFU, FOXP1 / Fold change vs veh, FOXP1 / RFU, CARD8 / Fold change vs veh, CARD8 / RFU, STRN3 / Fold change vs veh, STRN3 / RFU, ADK / Fold change vs veh, ADK / RFU, RASSF2 / Fold change vs veh, RASSF2 / RFU, WIPF1 / Fold change vs veh, WIPF1 / RFU, LARP1B / Fold change vs veh, LARP1B / RFU, RASA1 / Fold change vs veh, RASA1 / RFU, RB1 / Fold change vs veh, RB1 / RFU, PPFIA1 / Fold change vs veh, PPFIA1 / RFU, MAT2A / Fold change vs veh, MAT2A / RFU, CCT5 / Fold change vs veh, CCT5 / RFU, WDR92 / Fold change vs veh, WDR92 / RFU, CUX1 / Fold change vs veh, CUX1 / RFU, TTC7A / Fold change vs veh, TTC7A / RFU, TMEM135 / Fold change vs veh, TMEM135 / RFU, DEPTOR / Fold change vs veh, DEPTOR / RFU, CPM / Fold change vs veh, CPM / RFU, DNAJB6 / Fold change vs veh, DNAJB6 / RFU, CACNA2D3 / Fold change vs veh, CACNA2D3 / RFU, DTX4 / Fold change vs veh, DTX4 / RFU, TFCP2 / Fold change vs veh, TFCP2 / RFU, GMCL1 /// GMCL1P1 / Fold change vs veh, GMCL1 /// GMCL1P1 / RFU, AEBP2 / Fold change vs veh, AEBP2 / RFU, SNHG1 /// SNORD22 /// SNORD25 /// SNORD26 /// SNORD27 /// SNORD28 /// SNORD29 /// SNORD31 / Fold change vs veh, SNHG1 /// SNORD22 /// SNORD25 /// SNORD26 /// SNORD27 /// SNORD28 /// SNORD29 /// SNORD31 / Fold change (Aza/veh), C12orf56 (ProbeSet 11735607_a_at) / Fold change (ACY-1035/veh), C12orf56 (ProbeSet 11735607_a_at) / Fold change (Aza/veh), FGFR1OP (ProbeSet 11751329_s_at) / Fold change (ACY-1035/veh), FGFR1OP (ProbeSet 11751329_s_at) / Fold change (Aza/veh), VPS36 (ProbeSet 11739960_a_at) / Fold change (ACY-1035/veh), VPS36 (ProbeSet 11739960_a_at) / RFU SYPL1 (11715823_x_at) / Fold change /veh SYPL1 (11715823_x_at) / RFU IGFBP7 (11715501_s_at) / Fold change /veh IGFBP7 (11715501_s_at) / RFU REEP3 (11722064_at) / Fold change /veh REEP3 (11722064_at) / RFU IGLL1 (11728026_x_at) / Fold change /veh IGLL1 (11728026_x_at): dose or concentration left out as unconfirmed
Details: ProbeSet 11746640_a_at; LIST D

Nc1ncn([C@@H]2O[C@H](CO)[C@@H](O)[C@H]2O)c(=O)n1 [azacitidine]
RFU, RASSF2: 35.94 RFU
